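Grown in 96-well plates, cells were treated for 48 hours with each compound at five concentrations. Insufficient inhibition: endpoint recorded as highest concentration tested. TGI is the concentration that stops growth completely.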
Columns and labels:
Test in all cases: NCI tumour cell line growth inhibition, 48 h
HOP-92 NSCLC = test system: HOP-92 NSCLC
NCI-H460 lung = test system: NCI-H460 lung
LOX IMVI melanoma = test system: LOX IMVI melanoma
SR leukemia = test system: SR leukemia
SK-MEL-5 melanoma = test system: SK-MEL-5 melanoma
SF-295 CNS = test system: SF-295 CNS
NCI-H23 lung = test system: NCI-H23 lung
MCF7 breast = test system: MCF7 breast
HCT-116 colon = test system: HCT-116 colon
BT-549 breast = test system: BT-549 breast
NCI-H522 lung = test system: NCI-H522 lung
PC-3 prostate = test system: PC-3 prostate
SK-OV-3 ovarian = test system: SK-OV-3 ovarian
COLO 205 colon = test system: COLO 205 colon
HL-60(TB) leukemia = test system: HL-60(TB) leukemia
EKVX NSCLC = test system: EKVX NSCLC
IGROV1 ovarian = test system: IGROV1 ovarian
T-47D breast = test system: T-47D breast
UO-31 renal = test system: UO-31 renal
SNB-19 CNS = test system: SNB-19 CNS
UACC-257 melanoma = test system: UACC-257 melanoma
RXF 393 renal = test system: RXF 393 renal
MDA-N = test system: MDA-N
HCT-15 colon = test system: HCT-15 colon
HT29 colon = test system: HT29 colon
OVCAR-3 ovarian = test system: OVCAR-3 ovarian
HCC-2998 colon = test system: HCC-2998 colon
K-562 leukemia = test system: K-562 leukemia
OVCAR-8 ovarian = test system: OVCAR-8 ovarian
M14 melanoma = test system: M14 melanoma
OVCAR-4 ovarian = test system: OVCAR-4 ovarian
SF-539 CNS = test system: SF-539 CNS
ACHN renal = test system: ACHN renal
NCI-H226 lung = test system: NCI-H226 lung
HS 578T breast = test system: HS 578T breast
DU-145 prostate = test system: DU-145 prostate
A549 NSCLC = test system: A549 NSCLC
UACC-62 melanoma = test system: UACC-62 melanoma
SN12C renal = test system: SN12C renal
U251 CNS = test system: U251 CNS
786-0 renal = test system: 786-0 renal
NCI/ADR-RES ovarian = test system: NCI/ADR-RES ovarian
HOP-62 NSCLC = test system: HOP-62 NSCLC
SK-MEL-2 melanoma = test system: SK-MEL-2 melanoma
OVCAR-5 ovarian = test system: OVCAR-5 ovarian
CAKI-1 renal = test system: CAKI-1 renal
CCRF-CEM leukemia = test system: CCRF-CEM leukemia
SK-MEL-28 melanoma = test system: SK-MEL-28 melanoma
MDA-MB-435 = test system: MDA-MB-435
TK-10 renal = test system: TK-10 renal
MALME-3M melanoma = test system: MALME-3M melanoma
SW-620 colon = test system: SW-620 colon
MOLT-4 leukemia = test system: MOLT-4 leukemia
MDA-MB-231 breast = test system: MDA-MB-231 breast
KM12 colon = test system: KM12 colon
SF-268 CNS = test system: SF-268 CNS
A498 renal = test system: A498 renal
RPMI-8226 leukemia = test system: RPMI-8226 leukemia
SNB-75 CNS = test system: SNB-75 CNS

COCOc1cc(OC)ccc1C/C=N/O
TGI (HOP-92 NSCLC): > 100 µM
TGI (NCI-H460 lung): > 100 µM
TGI (LOX IMVI melanoma): > 100 µM
TGI (SR leukemia): > 100 µM
TGI (SK-MEL-5 melanoma): > 100 µM
TGI (SF-295 CNS): > 100 µM
TGI (NCI-H23 lung): > 100 µM
TGI (MCF7 breast): > 100 µM
TGI (HCT-116 colon): > 100 µM
TGI (BT-549 breast): > 100 µM
TGI (NCI-H522 lung): > 100 µM
TGI (PC-3 prostate): > 100 µM
TGI (SK-OV-3 ovarian): > 100 µM
TGI (COLO 205 colon): > 100 µM
TGI (HL-60(TB) leukemia): > 100 µM
TGI (EKVX NSCLC): > 100 µM
TGI (IGROV1 ovarian): > 100 µM
TGI (T-47D breast): > 100 µM
TGI (UO-31 renal): > 100 µM
TGI (SNB-19 CNS): > 100 µM
TGI (UACC-257 melanoma): > 100 µM
TGI (RXF 393 renal): > 100 µM
TGI (MDA-N): > 100 µM
TGI (HCT-15 colon): > 100 µM
TGI (HT29 colon): > 100 µM
TGI (OVCAR-3 ovarian): > 100 µM
TGI (HCC-2998 colon): > 100 µM
TGI (K-562 leukemia): > 100 µM
TGI (OVCAR-8 ovarian): > 100 µM
TGI (M14 melanoma): > 100 µM
TGI (OVCAR-4 ovarian): > 100 µM
TGI (SF-539 CNS): > 100 µM
TGI (ACHN renal): > 100 µM
TGI (NCI-H226 lung): > 100 µM
TGI (HS 578T breast): > 100 µM
TGI (DU-145 prostate): > 100 µM
TGI (A549 NSCLC): > 100 µM
TGI (UACC-62 melanoma): > 100 µM
TGI (SN12C renal): > 100 µM
TGI (U251 CNS): > 100 µM
TGI (786-0 renal): > 100 µM
TGI (NCI/ADR-RES ovarian): > 100 µM
TGI (HOP-62 NSCLC): > 100 µM
TGI (SK-MEL-2 melanoma): > 100 µM
TGI (OVCAR-5 ovarian): > 100 µM
TGI (CAKI-1 renal): > 100 µM
TGI (CCRF-CEM leukemia): > 100 µM
TGI (SK-MEL-28 melanoma): > 100 µM
TGI (MDA-MB-435): > 100 µM
TGI (TK-10 renal): > 100 µM
TGI (MALME-3M melanoma): > 100 µM
TGI (SW-620 colon): > 100 µM
TGI (MOLT-4 leukemia): > 100 µM
TGI (MDA-MB-231 breast): > 100 µM
TGI (KM12 colon): > 100 µM
TGI (SF-268 CNS): > 100 µM

CCCCn1c(C)c(C(=O)CC)c(C(=O)NCCN2CCN(c3ccccc3Cl)CC2)c1C
TGI (HOP-92 NSCLC): 27.7 µM
TGI (NCI-H460 lung): 28.9 µM
TGI (LOX IMVI melanoma): 35.6 µM
TGI (SR leukemia): 60.1 µM
TGI (SK-MEL-5 melanoma): 28.7 µM
TGI (SF-295 CNS): 34.6 µM
TGI (NCI-H23 lung): 30.5 µM
TGI (A498 renal): 32.3 µM
TGI (MCF7 breast): 36.2 µM
TGI (HCT-116 colon): 27.7 µM
TGI (BT-549 breast): 30.3 µM
TGI (NCI-H522 lung): 33.3 µM
TGI (PC-3 prostate): 31.1 µM
TGI (SK-OV-3 ovarian): 35.7 µM
TGI (COLO 205 colon): 28.4 µM
TGI (HL-60(TB) leukemia): 49.5 µM
TGI (EKVX NSCLC): 33.1 µM
TGI (IGROV1 ovarian): 30.9 µM
TGI (T-47D breast): 51.2 µM
TGI (UO-31 renal): 27.1 µM
TGI (SNB-19 CNS): 31.3 µM
TGI (UACC-257 melanoma): 26.3 µM
TGI (RXF 393 renal): 39.4 µM
TGI (MDA-N): 31 µM
TGI (HCT-15 colon): 31.6 µM
TGI (HT29 colon): 29.2 µM
TGI (OVCAR-3 ovarian): 48.1 µM
TGI (K-562 leukemia): > 100 µM
TGI (OVCAR-8 ovarian): 35.8 µM
TGI (M14 melanoma): 33.5 µM
TGI (OVCAR-4 ovarian): 34.6 µM
TGI (SF-539 CNS): 34.9 µM
TGI (ACHN renal): 30.2 µM
TGI (NCI-H226 lung): 37.8 µM
TGI (HS 578T breast): 58.1 µM
TGI (DU-145 prostate): 35.4 µM
TGI (A549 NSCLC): 32.9 µM
TGI (UACC-62 melanoma): 29.9 µM
TGI (SN12C renal): 30.9 µM
TGI (U251 CNS): 31.3 µM
TGI (786-0 renal): 32.5 µM
TGI (NCI/ADR-RES ovarian): 34.3 µM
TGI (HOP-62 NSCLC): 40.6 µM
TGI (SK-MEL-2 melanoma): 32.1 µM
TGI (OVCAR-5 ovarian): 33.3 µM
TGI (CAKI-1 renal): 32.3 µM
TGI (CCRF-CEM leukemia): > 100 µM
TGI (SK-MEL-28 melanoma): 48.2 µM
TGI (MDA-MB-435): 36.4 µM
TGI (TK-10 renal): 33.9 µM
TGI (RPMI-8226 leukemia): 81.8 µM
TGI (MALME-3M melanoma): 34.4 µM
TGI (SW-620 colon): > 100 µM
TGI (MOLT-4 leukemia): 50.1 µM
TGI (MDA-MB-231 breast): 33.8 µM
TGI (KM12 colon): 37.5 µM
TGI (SF-268 CNS): 37.7 µM

O=c1oc2ccc(Cl)cc2cc1C1=CSC2=NCCN12
TGI (HOP-92 NSCLC): 48.3 µM
TGI (NCI-H460 lung): > 100 µM
TGI (LOX IMVI melanoma): 35.1 µM
TGI (SR leukemia): 34.6 µM
TGI (SK-MEL-5 melanoma): 34.2 µM
TGI (SF-295 CNS): 59.1 µM
TGI (NCI-H23 lung): 47.4 µM
TGI (MCF7 breast): 40.1 µM
TGI (HCT-116 colon): 32 µM
TGI (BT-549 breast): 37.9 µM
TGI (NCI-H522 lung): 34.5 µM
TGI (PC-3 prostate): 49.2 µM
TGI (SK-OV-3 ovarian): > 100 µM
TGI (COLO 205 colon): 41.5 µM
TGI (HL-60(TB) leukemia): 61 µM
TGI (EKVX NSCLC): 51.6 µM
TGI (IGROV1 ovarian): 34 µM
TGI (T-47D breast): 79.7 µM
TGI (UO-31 renal): 51.4 µM
TGI (SNB-19 CNS): 67.7 µM
TGI (UACC-257 melanoma): > 100 µM
TGI (SNB-75 CNS): > 100 µM
TGI (RXF 393 renal): 49.5 µM
TGI (MDA-N): 47.4 µM
TGI (HCT-15 colon): 41.6 µM
TGI (HT29 colon): 36.3 µM
TGI (OVCAR-3 ovarian): 35.5 µM
TGI (HCC-2998 colon): 29.4 µM
TGI (K-562 leukemia): 36.8 µM
TGI (OVCAR-8 ovarian): 38.7 µM
TGI (M14 melanoma): > 100 µM
TGI (OVCAR-4 ovarian): 65.4 µM
TGI (SF-539 CNS): 72 µM
TGI (ACHN renal): > 100 µM
TGI (HS 578T breast): 93 µM
TGI (DU-145 prostate): 36.2 µM
TGI (A549 NSCLC): > 100 µM
TGI (UACC-62 melanoma): 40.4 µM
TGI (SN12C renal): 32.7 µM
TGI (U251 CNS): 56.2 µM
TGI (786-0 renal): 33.4 µM
TGI (NCI/ADR-RES ovarian): > 100 µM
TGI (HOP-62 NSCLC): 34.3 µM
TGI (SK-MEL-2 melanoma): 55.8 µM
TGI (OVCAR-5 ovarian): > 100 µM
TGI (CAKI-1 renal): > 100 µM
TGI (CCRF-CEM leukemia): 47 µM
TGI (SK-MEL-28 melanoma): 80.1 µM
TGI (MDA-MB-435): 57.8 µM
TGI (TK-10 renal): 84.4 µM
TGI (RPMI-8226 leukemia): 44.1 µM
TGI (MALME-3M melanoma): 79.7 µM
TGI (SW-620 colon): 49.1 µM
TGI (MOLT-4 leukemia): 36.4 µM
TGI (MDA-MB-231 breast): 40.9 µM
TGI (KM12 colon): 41.3 µM
TGI (SF-268 CNS): 33.4 µM

— PubChem BioAssay (NCI)
